Consider one compound from US20220387370A1, “METHODS OF REDUCING NEUROLOGICAL DAMAGE IN WILSON DISEASE PATIENTS” (priority 2019, published 2022).

Entries after “also recorded” stand apart in the source; their conditions may differ.

Data set [1] relates to U87MG cells. Particulars: 750 μM chelator. How it is done:
(§1) SHSY5Y (human neuroblastoma), U87MG (human astrocytoma), EA.hy926 (human endothelium) and HepG2 (human hepatocellular carcinoma) cells were from ATCC (Wesel, Germany) and were cultured in Dulbecco's Modified Eagle Medium (DMEM) supplemented with 10% FCS (Biochrom, Berlin, Germany) and 1% antibiotic-antimycotic (Life Technologies, Carlsbad, USA). All cells were maintained at 37° C. in a humidified atmosphere with 5% CO2.

Data set [2] deals with Zonula occludens-1 (ZO-1). Nature of the data set: Immunocytochemistry staining of Zonula occludens-1 in PBCEC monolayers. It is filed as cell-based, porcine. The settings on record: 250 μM copper and 83.3 μM albumin, 250 μM chelator. How it is done: Total copper was determined by ICP-MS/MS as previously described (Kopp, J. F., et al., J Trace Elem Med Biol, 2019. 54: p. 221-225). For the immunocytochemical staining of tight junction proteins, confluent PBCECs cultivated on Transwell® membrane inserts were processed as previously described ([…]., et al., Archives of Toxicology 2018. 92(2): p. 823-832). Briefly, PBCECs were fixed with formaldehyde and permeabilized using Triton X-100. After blocking of unspecific binding sites by albumin, the cells were incubated with the either anti-claudin 5 or anti-ZO-1 antibody (Zytomed Systems GmbH, Berlin, Germany). Following a second blocking step, the cells were treated with an Alexa Fluor® 488 conjugated secondary antibody (Invitrogen, Molecular Probes Inc., Eugene, USA). Hoechst 33258 (Merck, Darmstadt, Germany) was used to stain cell nuclei. Subsequently, membranes were cut out of the inserts and mounted in Aqua Poly/Mount (Polysciences Inc., Washington, USA). After a solidification period of 24 hours, the samples were evaluated using a DM6 B fluorescence microscope by Leica Microsystems CMS GmbH (Wetzlar, Germany) in combination with the Leica Application Suite X.

Data set [3] deals with HepG2, EA.hy926, U87MG and SHSY5Y cells. The experiment in a line: Toxicity of the chelator itself in a copper-free setting, CellTiter-Glo. The settings on record: without external Cu-albumin addition. How it is done:
as §1
In general terms: Cellular ATP, detected with luciferase, serves as a proxy for viable cell number.

The subject of data set [4] is Atp7b^−/− rats. The experiment in a line: Chelator treatment of WD rats: copper in serum, urine and feces (ICP-OES). The format is in vivo, rat. How it is done: Control Atp7b^+/- and WD Atp7b^-/- rats were fed ad libitum with normal chow (1314; 13.89 mg Cu/kg; Altromin Spezialfutter GmbH, […], Germany) and tap water. All rats were healthy at treatment start and presented no signs of acute liver damage (serum AST <200 U/L and serum bilirubin <0.5 mg/dl). […] Untreated Atp7b^+/- and Atp7b^-/- rats served as controls. Urine and feces were collected at 24-hour intervals for which rats were housed individually in metabolic cages for 4 days. After a two-day resting period off treatment in normal cages and group housing, rats were sacrificed for serum collection.

Data set [5] has as its target Cu-albumin complex (bovine serum albumin) (Bos taurus, UniProt P02769). The settings on record: 750 μM copper, 250 μM albumin, molar ratio Cu-albumin-chelator 3:1:3. How it is done:
10 mg of fatty acid free bovine serum albumin (subsequently referred to as albumin, Carl Roth, Karlsruhe, Germany) were resuspended in 10 mM Tris-HCl buffer (pH 7.4) and mixed with 45 μL of 10 mM copper chloride. […] Briefly, 50 μL of each fraction were mixed with 10 μL 0.2% NQS, 10 μL of 0.2 M sodium phosphate buffer (pH 12.0) and 30 μL ddH2O in a clear 96-well plate. The samples were incubated for 20 min and absorbance was measured at 452 nm.

In data set [6] the test system is SHSY5Y cells. Nature of the data set: Cellular copper content (ICP-OES), SHSY5Y. Particulars: 750 μM copper, 250 μM albumin, 750 μM chelator, vs Cu-albumin alone. The format is cell-based, human. An excerpt:
Afterwards, cells were trypsinized and counted.

Data set [7] relates to EA.hy926 cells. Nature of the data set: High-resolution respirometry, EA.hy926. The format is cell-based, human. The settings on record: EA.hy926, Cu-albumin-treated, vs Cu-albumin alone. How it is done: Oxygen consumption was assessed by high-resolution respirometry (HRR) using the Oxygraph-2k and DatLab 7.0 (Oroboros Instruments GmbH, Innsbruck, Austria) as described previously (Pesta, D. and E. Gnaiger, Methods Mol Biol, 2012. 810: p. 25-58). Per chamber, 1.5-2×10^6 living cells were supplied in 2 mL of MiR05 buffer (0.5 mM EGTA, 3 mM MgCl2, 60 mM lactobionic acid, 20 mM taurine, 10 mM KH2PO4, 20 mM HEPES, 110 mM sucrose, 1 g/L albumin, pH 7.1) and routine respiration was measured. Addition of 2.5 μM oligomycin (inhibitor of the FOF1-ATPase) enabled the measurement of leak respiration and stepwise addition of CCCP (1 μL steps from 1 mM stock solution) allowed the determination of the maximum oxygen flux and thereby the capacity of the electron transport system (ETS). The oxygen flux was baseline-corrected for non-mitochondrial oxygen consuming processes (ROX) by the addition of 2.5 μM of the complex III-inhibitor antimycin A.

Data set [8] deals with patients with WD. The settings on record: cited from earlier work.
The test system of data set [9] is primary porcine brain capillary endothelial cells (PBCECs). Particulars: 750 μM copper and 250 μM albumin, 750 μM ALXN1840, 48 h. An excerpt: For transepithelial resistance (TEER) experiments (Srinivasan, B., et al., J Lab Autom, 2015. 20(2): p. 107-26), cryopreserved primary porcine brain capillary endothelial cells (PBCECs) were thawed and seeded either on rat tail collagen-coated 96-well plates for cytotoxicity testing using the Neutral red assay (Repetto, G., A. del Peso, and J. L. Zurita, Nat Protoc, 2008. 3(7): p. 1125-31) or Transwell® inserts (area: 1.12 cm^2, pore size: 0.4 μm: Corning, N.Y., USA) for barrier integrity studies. Cells were cultured for 48 hours in Earle's Medium 199 supplemented with 10% FCS, 50 U penicillin/mL, 50 μg/mL streptomycin, 100 μg/mL gentamycin and 0.7 mM I-glutamine and maintained at 37° C. in a humidified atmosphere with 5% CO2. […] TEER and capacitance values were continuously monitored over 48 h using a CellZscope device (nanoAnalytics, Münster, Germany). Only PBCEC monolayers with initial TEER values >600Ωcm^2 and capacitance values between 0.45 and 0.6 μF/cm^2 were used for permeability studies (Bornhorst, J., et al., J Biol Chem, 2012. 287(21): p. 17140-51). The barrier integrity was calculated by normalizing the TEER values to the respective start values.

Cu-albumin complex (bovine serum albumin), sequence (P02769 25-607, one chain of several): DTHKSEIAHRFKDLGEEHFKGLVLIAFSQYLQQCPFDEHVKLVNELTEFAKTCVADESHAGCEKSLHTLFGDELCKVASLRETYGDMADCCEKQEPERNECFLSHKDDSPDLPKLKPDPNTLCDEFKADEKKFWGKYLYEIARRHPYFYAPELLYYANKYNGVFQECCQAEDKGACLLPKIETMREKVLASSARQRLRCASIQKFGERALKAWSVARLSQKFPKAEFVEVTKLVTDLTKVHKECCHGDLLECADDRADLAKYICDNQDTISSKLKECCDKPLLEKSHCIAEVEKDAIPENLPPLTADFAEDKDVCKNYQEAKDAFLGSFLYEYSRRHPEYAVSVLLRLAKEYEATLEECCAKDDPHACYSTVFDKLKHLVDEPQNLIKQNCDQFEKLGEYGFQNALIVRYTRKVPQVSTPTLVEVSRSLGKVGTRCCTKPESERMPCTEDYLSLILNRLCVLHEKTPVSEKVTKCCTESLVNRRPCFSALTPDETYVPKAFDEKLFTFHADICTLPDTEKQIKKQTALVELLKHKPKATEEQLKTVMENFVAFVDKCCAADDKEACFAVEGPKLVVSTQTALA

Take `C[N+](C)(C)CCO.C[N+](C)(C)CCO.[SH-].[SH-].[S]=[Mo]=[S]` [ALXN1840, bis-choline tetrathiomolybdate]: the “CellTiterGlo-assessed cell viability / Cu-albumin toxicity” value in data set [1] is “protected”. For the same compound, the “ZO-1 distribution (uneven, diffuse staining upon Cu-albumin)” value in data set [2] is “could be fully protected; also recorded: prevented”. The “CellTiterGlo-assessed cell viability with chelator alone” value in [3] was “becomes toxic at elevated concentrations; also recorded: dose-dependent reduction”. Further, the fecal copper excretion result in [4] (during treatment) is recorded as “unchanged”. Moreover, in [4] (during treatment, urine collected over 24 h), the urinary copper excretion entry is reported as “lack of urinal copper excretion”. In data set [4] (i.p. once daily for 4 consecutive days (ALXN1840 2.5 mg/kg bw, DPA 100 mg/kg bw), serum at sacrifice after resting period), the serum copper levels result is on record as “significantly increased; also recorded: increased serum copper levels”. Further, in [4] (observation period of 96 hours), the “net copper excretion (urine and feces)” value is given as “no profoundly elevated net copper excretion”. Moreover, in data set [5], the “distribution of copper, albumin and chelator over gel filtration fractions” value was “one prominent gel filtration peak appeared; also recorded: albumin, molybdenum and copper were present in the same fractions”. In addition, the cellular copper content entry in [6] was “this effect was not present”. Besides, in data set [7], the “mitochondrial respiration (ETS)” value is reported as “significantly increased” and the “respiratory control ratio E/L (ETS to leak respiration)” value is “significantly increased”. Besides, the “reduction of mean serum non-ceruloplasmin-bound Cu (NCC)” value in data set [8] (at Week 24 compared with baseline, 28 patients with WD) is 72%. For the same compound, in data set [8] (mild to moderate, asymptomatic, normalized with dose reduction or interruption), the “patients with reversible liver function test elevations” value is 39%. Further, the tolerability entry in data set [8] (most AEs mild (Grade 1) to moderate (Grade 2)) was “generally well-tolerated”. In addition, the paradoxical neurological worsening entry in [8] (upon treatment initiation) is “No paradoxical neurological worsening was observed”. Also, the “cell viability (neutral red)” value in data set [9] was “could be rescued”.
